Data from PubChem BioAssay AID652058 (Broad Institute, 2013).
Results filed as inconclusive are left out.

Test system: HeLa Env/CEM cell fusion, luciferase, 16-24 h
Assay: ZM109 Env clade C HIV-1 fusion inhibitors, dose response, HeLa effector, CEM target cells, luciferase, cherry-pick (AID 652058)

O=C(C[C@H]1C[C@H]2c3cc(NC(=O)c4ccc5c(c4)OCO5)ccc3O[C@H]2[C@H](CO)O1)NCc1ccc(Oc2ccccc2)cc1
AC50: 13.7 µM
